Consider 47 sequences from the OligoGym collection.

In the data set the target is APOL1. To be noted: ASO.

“And” between values parts separate entries of the source, which are not always exact repeats. Identical values can stand only once. After the bases stand the sugars from the 5' end (letter, count) and the backbone: PS all phosphorothioate, else s phosphorothioate and o phosphodiester by linkage. Methylation of C is not given here. e = 2'-O-(2-methoxyethyl) (MOE); k = constrained ethyl (cEt); d = 2'-deoxy (DNA)

For “CTTTAAACTCAGGTGA (sugars k2 d4 e3 k2 d5, PS)”, the target mRNA inhibition reads like this: (A431, 0.0156 µM) 19%; (A431, 0.0625 µM) 40%; (A431, 0.25 µM) 61%; (A431, 1 µM) 85%; (A431, 2 µM) 92%.
As to “GTATTGTTTTTGTGGG (sugars kdddddkekekddddd, PS)”, the target mRNA inhibition (A431, 2 µM) stood at 77%.
On the same count and under the same terms, the same measure for “CAGTTTTGTAAGTGCA (sugars kkddddkekekkdddd, PS)”: 18%.
Take “GTATTTCTTGATGTGG (sugars kkddddekekeddddd, PS)”: the target mRNA inhibition reads like this: (A431, 0.04 µM) 58%; (A431, 1 µM) 96%; (A431, 2 µM) 96%.
On to ATGCGGTACTGACTGA (sugars k4 d9 k3, PS), for which the target mRNA inhibition (A431, 0.0625 µM) worked out at 49%; the target mRNA inhibition (A431, 0.25 µM) turned out to be 69%; the target mRNA inhibition (A431, 1 µM) was found to be 88%.
In the same order, the values of CACCTGTTCACCGCTT (sugars k4 d9 k3, PS) are 41%, 67% and 87%.
For the setting “A431, 2 µM”, “CATTCAGAATTTCCAC (sugars kkdddddkekeddddd, PS)” had a target mRNA inhibition of 84%.
Regarding TTCTATTAGAGGGCTA (sugars k4 d9 k3, PS), the target mRNA inhibition (A431, 0.04 µM) came to 68%; the target mRNA inhibition (A431, 0.0625 µM) is 51% and 40%; the target mRNA inhibition (A431, 0.25 µM) is 81% and 72%; the target mRNA inhibition (A431, 1 µM) was 92% and 84% and 98%.
GTAAGTGCTTTGATTC (sugars k4 d9 k3, PS): the target mRNA inhibition (A431, 0.0625 µM) is 64%; the target mRNA inhibition (A431, 0.25 µM) came to 83%; the target mRNA inhibition (A431, 1 µM) worked out at 92%.
Turning to “AATTCTATTAGAGGGC (sugars k2 d4 e3 k2 d5, PS)”, for the setting “A431, 2 µM”, the target mRNA inhibition stood at 73%.
The same measure, in the same setting: as for “TTTATACCAGTGTCTT (sugars kkddddkekekddddd, PS)”, the figure is 89%.
In turn, “CTTTAAACTCAGGTGA (sugars kkddddekekeddddd, PS)” registered a target mRNA inhibition (A431, 2 µM) of 91%.
Regarding “AAGTATTGCCAGCTAA (sugars kkkddddkdkdkdddd, PS)”, the target mRNA inhibition (A431, 2 µM) amounted to 54%.
The same measure, in the same setting: the same measure for “CTTTATACCAGTGTCT (sugars kddddkekekeddddd, PS)”: 92%; for “CTAATTTTCTGACTGT (sugars kkddddkekekddddd, PS)”: 83%.
Same read-out and setting: the same measure for “TCTCATGGTACAGGAG (sugars kkddddkekekkdddd, PS)”: 26%.
As to AGCAGCCACGAATCCG (sugars k4 d9 k3, PS), the target mRNA inhibition reads like this: (A431, 0.0625 µM) 40%; (A431, 0.25 µM) 66%; (A431, 1 µM) 63%.
Taken in the same sequence, the figures for AAGGAGTTGCTGAAAC (sugars k4 d9 k3, PS) were 32%, 48% and 63%.
In the case of “TGAGTATTGTTTTTGT (sugars kkkddddkekeddddd, PS)”, the target mRNA inhibition is, setting by setting: (A431, 0.0156 µM) 16%; (A431, 0.0625 µM) 47%; (A431, 0.25 µM) 74%; (A431, 1 µM) 90%; (A431, 2 µM) 92%.
Take “CAGTTTTGTAAGTGCA (sugars k3 d4 k3 e1 d5, PS)”: the target mRNA inhibition (A431, 2 µM) is 92%.
Same read-out and setting: as for “GTTTTGTAAGTGCAAC (sugars kkddddkekekddddd, PS)”, the figure is 88%.
On the same count and under the same terms, as for “AATTATGGAATTGCAG (sugars kkddddkekekkdddd, PS)”, the figure is 35%; as for “TTCTATTAGAGGGCTA (sugars kkddddekekeddddd, PS)”, 85%.
Turning to TGTTTAGGCATTCAGA (sugars k4 d9 k3, PS), the target mRNA inhibition by setting is: (A431, 0.0625 µM) 59% and 37%; (A431, 1 µM) 86% and 64%.
CACTTTACATGCACGA (sugars k4 d9 k3, PS) yielded a target mRNA inhibition (A431, 0.0625 µM) of 26%; a target mRNA inhibition (A431, 0.25 µM) of 65%; a target mRNA inhibition (A431, 1 µM) of 85%.
The sequence “TTATATTTGATCCTCA (sugars kkddddkekekkdddd, PS)” had a target mRNA inhibition (A431, 2 µM) of 69%.
GATGGGTACTTCTGTT (sugars k4 d9 k3, PS) had a target mRNA inhibition (A431, 0.0625 µM) of 63%; a target mRNA inhibition (A431, 0.25 µM) of 82%; a target mRNA inhibition (A431, 1 µM) of 90%.
With “TTATGAAATTATTGGT (sugars kkddddkdkdkddddd, PS)”, the target mRNA inhibition (A431, 2 µM) was 47%.
On the same count and under the same terms, the same measure for “GTTATGAAATTATTGG (sugars kkkddddkdkdkdddd, PS)”: 91%; for “GTTATGAAATTATTGG (sugars kkkddddkekekdddd, PS)”: 79%; for “GGAATTATGGAATTGC (sugars kkddddkekekkdddd, PS)”: 74%.
Still for that read-out and setting: the same measure for “CTTTATACCAGTGTCT (sugars kkkddddkekeddddd, PS)”: 94%.
For “TTTTGTAAGTGCAACC (sugars k3 d4 k3 e1 d5, PS)”, the target mRNA inhibition is 38% (A431, 0.0156 µM); 38% and 24% (A431, 0.04 µM); 71% (A431, 0.0625 µM); 93% (A431, 0.25 µM); 97% and 98% and 94% (A431, 1 µM); 98% (A431, 2 µM).
Take “CATTCAGAATTTCCAC (sugars kkddddkdkdkddddd, PS)”: where the note is “A431, 2 µM”, the target mRNA inhibition was 84%.
On the same count and under the same terms, as for “ACACATCATTGGGTTA (sugars kddddkekekeddddd, PS)”, the figure is 36%.
For “GCATTCAGAATTTCCA (sugars k2 d4 e3 k2 d5, PS)”, the target mRNA inhibition came out at 39% (A431, 0.0156 µM); 72% (A431, 0.0625 µM); 91% (A431, 0.25 µM); 97% (A431, 1 µM); 98% (A431, 2 µM).
GTCCTTACTGCAGTTT (sugars k4 d9 k3, PS) displayed a target mRNA inhibition (A431, 0.0625 µM) of 60%; a target mRNA inhibition (A431, 0.25 µM) of 83%; a target mRNA inhibition (A431, 1 µM) of 93%.
In turn, “CACATCATTGGGTTAT (sugars k2 d4 e3 k2 d5, PS)” displayed a target mRNA inhibition (A431, 2 µM) of 86%.
On the same count and under the same terms, the same measure for “CACTTTATACCAGTGT (sugars kkddddekekeddddd, PS)”: 0%; for “GAACGCAATGCTGACT (sugars kkddddkekekddddd, PS)”: 78%; for “AGTATTGTTTTTGTGG (sugars kkdddddkekeddddd, PS)”: 91%.
Turning to TGTCTTGCAAGGTTGT (sugars k4 d9 k3, PS), the target mRNA inhibition worked out at 57% (A431, 0.0625 µM); 73% (A431, 0.25 µM); 84% (A431, 1 µM).
Sequence “TTATACCAGTGTCTTC (sugars kkddddkekekkdddd, PS)” displayed a target mRNA inhibition (A431, 2 µM) of 68%.
In the case of “AGTTTTGTAAGTGCAA (sugars k2 d4 e4 k2 d4, PS)”, the target mRNA inhibition was found to be 4% (A431, 0.0156 µM); 23% (A431, 0.0625 µM); 80% (A431, 0.25 µM); 91% (A431, 1 µM); 94% (A431, 2 µM).
“AGTATTGTTTTTGTGG (sugars kkddddkekekddddd, PS)” gave a target mRNA inhibition (A431, 2 µM) of 75%.
Same read-out and setting: the same measure for “AGCTTTAAACTCAGGT (sugars k3 d5 k3 d5, PS)”: 68%.
On to GAAGCTTTAAACTCAG (sugars k4 d9 k3, PS), for which the target mRNA inhibition worked out at 41% (A431, 0.0625 µM); 65% (A431, 0.25 µM); 82% (A431, 1 µM).
